From patent publication US9688691B2, “Macrocyclic quinazole derivatives and their use as MTKI” (Janssen Pharmaceutica NV, priority 2004, dated 2017)

What was measured:
Type in all cases: biochemical
[1] = target: EGFR (h) (Homo sapiens, UniProt P00533); assay: Kinase profiling, glass-fiber filter technology: EGFR; details: test concentration of 10^−6 M; read-out: EGFR inhibition score
Protocol: (§1) The in vitro inhibition of a panel of kinases was assessed using the glass-fiber filter technology as described by Davies, S. P. et al., Biochem J. (2000), 351; p. 95-105.
(§2) In the glass-fiber filter technology the activity of the kinase of interest is measured using an appropriate substrate that is incubated with the aforementioned kinase protein in the presence of (^33P) radiolabeled ATP. (^33P) Phosporylation of the substrate is subsequently measured as radioactivity bound on a glassfiber-filter.
(§3) All kinases are pre-diluted to a 10× working concentration prior to addition into the assay. The composition of the dilution buffer for each kinase is detailed below.
(§4) All substrates are dissolved and diluted to working stocks in de-ionised water.
(§5) In a final reaction volume of 25 μl, EGFR (h) (5-10 mU) is incubated with 8 mM MOPS pH 7.0, 0.2 mM EDTA, 10 mM MnCl2, 0.1 mg/ml poly(Glu, Tyr) 4:1, 10 mM MgAcetate and [γ-^33P-ATP] (specific activity approx. 500 cpm/pmol, concentration as required). The reaction is initiated by the addition of the MgATP mix. After incubation for 40 minutes at room temperature, the reaction is stopped by the addition of 5 μl of a 3% phosphoric acid solution. 10 μl of the reaction is then spotted onto a Filtermat A and washed three times for 5 minutes in 75 mM phosphoric acid and once in methanol prior to drying and scintillation counting.

[2] = target: Lck (h) (Homo sapiens, UniProt P06239); assay: Kinase profiling, glass-fiber filter technology: Lck; details: test concentration of 10^−6 M; read-out: Lck inhibition score
Protocol: as §1, §2, §3, §4
In a final reaction volume of 25 μl, Lck (h) (5-10 mU) is incubated with 50 mM Tris pH 7.5, 0.1 mM EGTA, 0.1 mM Na3VO4, 250 μM KVEKIGEGTYGVVYK (Cdc2 peptide), 10 mM MgAcetate and [γ-^33P-ATP] (specific activity approx. 500 cpm/pmol, concentration as required). The reaction is initiated by the addition of the MgATP mix. After incubation for 40 minutes at room temperature, the reaction is stopped by the addition of 5 μl of a 3% phosphoric acid solution.
10 μl of the reaction is then spotted onto a P30 filtermat and washed three times for 5 minutes in 75 mM phosphoric acid and once in methanol prior to drying and scintillation counting.

[3] = target: Flt1 human (Homo sapiens, UniProt P17948); assay: Kinase profiling, glass-fiber filter technology: Flt1; details: test concentration of 10^−6 M; read-out: Flt1 inhibition score
Protocol: as §1, §2, §3, §4
as §5, with “Flt1 human” for “EGFR (h)”, “250 μM KKKSPGEYVNIEFG,” for “10 mM MnCl2, 0.1 mg/ml poly(Glu, Tyr) 4:1,”, “P30 filtermat” for “Filtermat A”

[4] = target: Blk (m) (Mus musculus, UniProt P16277); assay: Kinase profiling, glass-fiber filter technology: Blk; details: test concentration of 10^−6 M; read-out: Blkl inhibition score
Protocol: as §1, §2, §3, §4
In a final reaction volume of 25 μl, Blk (m) (5-10 mU) is incubated with 50 mM Tris pH 7.5, 0.1 mM EGTA, 0.1 mM Na3VO4, 0.1% β-mercaptoethanol, 0.1 mg/ml poly(Glu, Tyr) 4:1, 10 mM MgAcetate and [γ-33P-ATP] (specific activity approx. 500 cpm/pmol, concentration as required). The reaction is initiated by the addition of the MgATP mix. After incubation for 40 minutes at room temperature, the reaction is stopped by the addition of 5 μl of a 3% phosphoric acid solution. 10 μl of the reaction is then spotted onto a Filtermat A and washed three times for 5 minutes in 75 mM phosphoric acid and once in methanol prior to drying and scintillation counting.

[5] = target: ErbB4 (h) (Homo sapiens, UniProt Q15303); assay: Kinase profiling, glass-fiber filter technology: ErbB4; details: test concentration of 10^−6 M; read-out: ErbB4 inhibition score
Protocol: as §1, §2, §3, §4
as §5, with “ErbB4” for “EGFR”, “[γ-33P-ATP]” for “[γ-^33P-ATP]”

Sequence of EGFR (h) (P00533 25-1210): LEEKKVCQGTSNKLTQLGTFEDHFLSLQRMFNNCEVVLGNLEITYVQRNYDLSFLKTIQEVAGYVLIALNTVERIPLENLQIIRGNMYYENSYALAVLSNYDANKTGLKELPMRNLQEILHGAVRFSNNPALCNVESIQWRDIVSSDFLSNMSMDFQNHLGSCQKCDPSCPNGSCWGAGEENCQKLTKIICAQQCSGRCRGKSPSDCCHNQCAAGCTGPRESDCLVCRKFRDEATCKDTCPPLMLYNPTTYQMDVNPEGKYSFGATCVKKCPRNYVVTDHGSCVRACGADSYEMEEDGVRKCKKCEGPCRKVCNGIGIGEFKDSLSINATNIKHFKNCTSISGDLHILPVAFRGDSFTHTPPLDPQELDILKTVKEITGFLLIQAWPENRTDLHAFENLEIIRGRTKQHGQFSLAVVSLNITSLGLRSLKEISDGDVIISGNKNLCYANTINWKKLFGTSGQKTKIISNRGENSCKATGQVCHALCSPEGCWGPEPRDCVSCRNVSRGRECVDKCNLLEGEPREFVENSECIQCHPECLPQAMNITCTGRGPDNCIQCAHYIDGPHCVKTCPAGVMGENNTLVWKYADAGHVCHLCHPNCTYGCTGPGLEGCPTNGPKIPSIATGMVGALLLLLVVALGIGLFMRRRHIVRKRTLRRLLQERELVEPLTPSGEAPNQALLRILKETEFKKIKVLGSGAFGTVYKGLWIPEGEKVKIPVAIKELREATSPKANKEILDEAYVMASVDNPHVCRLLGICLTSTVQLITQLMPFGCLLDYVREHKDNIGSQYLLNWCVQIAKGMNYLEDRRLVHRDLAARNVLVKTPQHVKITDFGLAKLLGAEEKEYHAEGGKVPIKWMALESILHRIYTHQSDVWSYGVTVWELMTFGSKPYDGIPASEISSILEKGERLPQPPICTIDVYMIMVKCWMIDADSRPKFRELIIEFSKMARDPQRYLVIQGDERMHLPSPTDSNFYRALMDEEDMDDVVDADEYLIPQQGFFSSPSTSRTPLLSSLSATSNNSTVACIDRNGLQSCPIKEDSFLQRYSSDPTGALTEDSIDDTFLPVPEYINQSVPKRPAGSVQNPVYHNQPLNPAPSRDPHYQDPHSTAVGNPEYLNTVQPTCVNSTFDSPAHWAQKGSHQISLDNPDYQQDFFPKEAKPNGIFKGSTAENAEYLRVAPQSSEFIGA
Sequence of Flt1 human (P17948 27-1338): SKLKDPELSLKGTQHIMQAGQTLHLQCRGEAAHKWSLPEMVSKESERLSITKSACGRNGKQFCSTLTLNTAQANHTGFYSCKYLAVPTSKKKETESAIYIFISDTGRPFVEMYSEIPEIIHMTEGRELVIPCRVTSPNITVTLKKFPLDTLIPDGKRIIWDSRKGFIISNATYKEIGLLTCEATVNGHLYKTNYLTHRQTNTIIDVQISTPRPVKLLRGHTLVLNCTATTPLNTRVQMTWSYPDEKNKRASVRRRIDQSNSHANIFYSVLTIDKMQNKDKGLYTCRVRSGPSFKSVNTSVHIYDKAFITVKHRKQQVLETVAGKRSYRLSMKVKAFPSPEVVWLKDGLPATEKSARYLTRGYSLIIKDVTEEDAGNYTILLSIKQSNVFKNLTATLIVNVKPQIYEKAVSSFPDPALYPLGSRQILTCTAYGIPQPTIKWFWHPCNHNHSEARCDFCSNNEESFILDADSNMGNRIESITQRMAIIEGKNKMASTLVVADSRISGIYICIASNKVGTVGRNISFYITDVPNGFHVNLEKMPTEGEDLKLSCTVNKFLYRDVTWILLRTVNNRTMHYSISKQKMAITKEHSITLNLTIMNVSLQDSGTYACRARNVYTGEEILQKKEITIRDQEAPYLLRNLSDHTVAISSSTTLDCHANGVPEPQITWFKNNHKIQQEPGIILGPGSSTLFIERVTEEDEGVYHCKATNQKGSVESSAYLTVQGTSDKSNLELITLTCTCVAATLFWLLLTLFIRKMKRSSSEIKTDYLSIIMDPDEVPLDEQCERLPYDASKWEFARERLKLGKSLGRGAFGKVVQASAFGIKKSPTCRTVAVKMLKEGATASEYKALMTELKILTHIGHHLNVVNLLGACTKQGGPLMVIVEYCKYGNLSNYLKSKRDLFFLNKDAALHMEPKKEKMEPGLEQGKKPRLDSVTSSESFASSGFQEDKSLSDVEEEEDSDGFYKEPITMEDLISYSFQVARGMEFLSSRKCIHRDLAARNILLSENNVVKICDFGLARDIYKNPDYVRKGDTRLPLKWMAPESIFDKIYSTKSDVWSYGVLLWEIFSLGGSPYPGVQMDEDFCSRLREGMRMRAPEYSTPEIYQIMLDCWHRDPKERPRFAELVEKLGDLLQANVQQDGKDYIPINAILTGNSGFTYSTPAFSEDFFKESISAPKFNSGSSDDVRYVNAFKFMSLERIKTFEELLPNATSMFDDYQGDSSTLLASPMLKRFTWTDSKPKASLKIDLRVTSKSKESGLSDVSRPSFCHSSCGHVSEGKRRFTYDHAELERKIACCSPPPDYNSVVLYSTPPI
Sequence of Blk (m) (P16277 whole entry): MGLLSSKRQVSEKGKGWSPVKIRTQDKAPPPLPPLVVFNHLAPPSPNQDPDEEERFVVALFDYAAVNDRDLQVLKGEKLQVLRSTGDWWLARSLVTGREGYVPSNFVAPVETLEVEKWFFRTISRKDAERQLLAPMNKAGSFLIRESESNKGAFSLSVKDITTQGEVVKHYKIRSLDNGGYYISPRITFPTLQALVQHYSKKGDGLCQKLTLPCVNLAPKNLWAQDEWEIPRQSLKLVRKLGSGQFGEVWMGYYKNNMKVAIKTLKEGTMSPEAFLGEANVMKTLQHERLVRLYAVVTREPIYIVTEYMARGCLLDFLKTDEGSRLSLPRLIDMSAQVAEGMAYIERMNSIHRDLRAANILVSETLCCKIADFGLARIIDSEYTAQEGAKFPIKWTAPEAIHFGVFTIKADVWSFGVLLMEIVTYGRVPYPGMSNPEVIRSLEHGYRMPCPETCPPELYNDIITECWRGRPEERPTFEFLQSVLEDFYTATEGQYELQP
Sequence of Lck (h) (P06239 whole entry): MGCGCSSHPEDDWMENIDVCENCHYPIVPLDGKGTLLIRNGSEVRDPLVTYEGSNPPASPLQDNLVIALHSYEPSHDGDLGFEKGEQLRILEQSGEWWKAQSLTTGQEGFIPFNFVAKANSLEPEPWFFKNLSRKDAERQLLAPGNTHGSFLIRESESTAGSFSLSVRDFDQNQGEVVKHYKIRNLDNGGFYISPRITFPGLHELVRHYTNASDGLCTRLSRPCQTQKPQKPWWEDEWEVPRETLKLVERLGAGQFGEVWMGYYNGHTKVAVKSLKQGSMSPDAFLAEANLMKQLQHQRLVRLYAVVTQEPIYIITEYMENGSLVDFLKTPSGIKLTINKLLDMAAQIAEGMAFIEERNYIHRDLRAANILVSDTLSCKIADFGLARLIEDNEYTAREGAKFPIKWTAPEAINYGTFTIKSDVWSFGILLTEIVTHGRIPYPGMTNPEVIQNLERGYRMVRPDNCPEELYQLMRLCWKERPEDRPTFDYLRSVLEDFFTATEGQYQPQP
Sequence of ErbB4 (h) (Q15303 26-1308): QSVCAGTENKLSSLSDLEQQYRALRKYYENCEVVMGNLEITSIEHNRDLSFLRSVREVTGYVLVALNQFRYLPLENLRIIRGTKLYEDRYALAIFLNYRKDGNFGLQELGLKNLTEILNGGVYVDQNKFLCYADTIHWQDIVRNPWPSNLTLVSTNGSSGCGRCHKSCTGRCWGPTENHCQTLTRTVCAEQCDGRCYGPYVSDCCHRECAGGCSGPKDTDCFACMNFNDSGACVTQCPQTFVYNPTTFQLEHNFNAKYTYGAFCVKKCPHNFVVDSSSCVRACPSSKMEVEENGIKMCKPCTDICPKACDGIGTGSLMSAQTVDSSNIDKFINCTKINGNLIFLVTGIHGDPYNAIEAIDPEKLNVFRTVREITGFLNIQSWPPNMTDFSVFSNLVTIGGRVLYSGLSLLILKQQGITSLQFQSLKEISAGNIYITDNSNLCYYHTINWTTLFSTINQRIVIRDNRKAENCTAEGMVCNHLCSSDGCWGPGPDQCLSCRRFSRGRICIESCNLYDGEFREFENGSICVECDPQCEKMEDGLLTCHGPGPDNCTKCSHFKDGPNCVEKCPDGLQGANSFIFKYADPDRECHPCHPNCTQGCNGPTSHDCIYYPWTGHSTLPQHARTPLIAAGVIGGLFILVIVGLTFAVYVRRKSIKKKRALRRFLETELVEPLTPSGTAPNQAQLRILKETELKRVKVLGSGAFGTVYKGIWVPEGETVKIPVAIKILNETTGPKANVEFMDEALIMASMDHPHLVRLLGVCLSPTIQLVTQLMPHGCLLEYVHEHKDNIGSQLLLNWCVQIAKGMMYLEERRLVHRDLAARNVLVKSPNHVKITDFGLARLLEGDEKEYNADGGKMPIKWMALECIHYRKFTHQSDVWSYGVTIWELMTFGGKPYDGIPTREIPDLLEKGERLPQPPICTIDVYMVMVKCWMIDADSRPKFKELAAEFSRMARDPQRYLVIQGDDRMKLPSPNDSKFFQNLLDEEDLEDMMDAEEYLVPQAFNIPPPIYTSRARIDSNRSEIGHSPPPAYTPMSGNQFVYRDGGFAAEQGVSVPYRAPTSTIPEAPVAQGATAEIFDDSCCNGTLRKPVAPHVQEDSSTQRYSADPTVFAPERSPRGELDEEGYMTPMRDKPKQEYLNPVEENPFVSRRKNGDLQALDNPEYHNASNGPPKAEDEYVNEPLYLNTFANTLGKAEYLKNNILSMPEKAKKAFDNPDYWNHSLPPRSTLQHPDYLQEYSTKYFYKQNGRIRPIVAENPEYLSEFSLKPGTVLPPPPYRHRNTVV

Row | SMILES | inhibition at 1 µM [1] | inhibition at 1 µM [2] | inhibition at 1 µM [3] | inhibition at 1 µM [4] | inhibition at 1 µM [5]
1 | CC(=O)OCCN(C)CCCOc1cc2ncnc3c2cc1OCCCNC(=O)[C@H](C)N(C)Cc1cc(F)c(Cl)cc1N3 [Compound 2] | > 80% | > 80% | 30 to 60% | > 80% | 30 to 60%
2 | CC(=O)NCCNCCCOc1cc2ncnc3c2cc1OCCCNC(=O)[C@H](C)N(C)Cc1cc(F)c(Cl)cc1N3 [Compound 4] | > 80% | > 80% | 30 to 60% | > 80% | 30 to 60%
3 | CC(=O)N(CCO)CCCOc1cc2ncnc3c2cc1OCCCNC(=O)[C@H](C)N(C)Cc1cc(F)c(Cl)cc1N3 [Compound 5] | > 80% | 60 to 80% | 30 to 60% | > 80% | 10 to 30%
4 | CC(=O)NCCN1CCN(CCCOc2cc3ncnc4c3cc2OCCCNC(=O)[C@H](C)N(C)Cc2cc(F)c(Cl)cc2N4)CC1 [Compound 6] | > 80% | > 80% |  |  | 60 to 80%
5 | CN1CCCCCOc2cc3c(ncnc3cc2OCCCNC(=O)OC(C)(C)C)Nc2cc(Br)ccc2C1 [Compound 11] | > 80% |  | 30 to 60% | 30 to 60% | 10 to 30%
6 | CN1CCCCCOc2cc3c(ncnc3cc2OC[C@@H](O)CN2CCS(=O)(=O)CC2)Nc2cc(Br)ccc2C1 [Compound 12] | > 80% | > 80% | 60 to 80% | > 80% | 60 to 80%
7 | CC(=O)NCCNCCCOc1cc2ncnc3c2cc1OCCCCCN(C)Cc1ccc(Br)cc1N3 [Compound 13] | > 80% | > 80% | > 80% | > 80% | > 80%
8 | CN1CCCCCOc2cc3c(ncnc3cc2OCCCNCCS(C)(=O)=O)Nc2cc(Br)ccc2C1 [Compound 14] | > 80% | > 80% | > 80% | > 80% | > 80%
9 | COc1cc2ncnc3c2cc1OCCCN(CCN1CCOCC1)C(=O)CNC(=O)Cc1ccc(Cl)cc1N3 [Compound 15] | > 80% | 30 to 60% | 10 to 30% | 30 to 60% | 10 to 30%
10 | CN1CCCCCOc2cc3c(ncnc3cc2OC[C@H](O)CNCCOCCO)Nc2cc(Cl)c(F)cc2C1 [Compound 17] | > 80% | > 80% |  |  | > 80%
11 | CN1CCCCCOc2cc3c(ncnc3cc2OCCCNCCS(C)(=O)=O)Nc2cc(Cl)c(F)cc2C1 [Compound 18] | > 80% | > 80% |  |  | > 80%
12 | CN1CCCCCOc2cc3c(ncnc3cc2OCCCN2CCS(=O)(=O)CC2)Nc2cc(Cl)c(F)cc2C1 [Compound 19] | > 80% | > 80% | > 80% | > 80% | 60 to 80%
13 | C#Cc1ccc2c(c1)Nc1ncnc3cc(OCCCNCCS(C)(=O)=O)c(cc13)OCCCCCN(C)C2 [Compound 20] |  | > 80% | > 80% | > 80% | > 80%
14 | C[C@H]1C(=O)NCCCOc2cc3c(ncnc3cc2OCCCN2CCN(C(=O)OC(C)(C)C)CC2)Nc2cc(Cl)c(F)cc2CN1C [Int. 16] | > 80% | > 80% | 60 to 80% | > 80% | 10 to 30%
15 | COc1cc2ncnc3c2cc1OCCCN(CCCN1CCOCC1)C(=O)[C@H](CC(C)C)NC(=O)Cc1ccc(Br)cc1N3 [Int. 25] | > 80% | 60 to 80% | 10 to 30% | 30 to 60% | 30 to 60%
16 | COCCOCCOc1cc2ncnc3c2cc1OCCCCCN(C)Cc1ccc(Br)cc1N3 [Int. 43] | > 80% | > 80% | 60 to 80% | 60 to 80% | 10 to 30%
